Results as given in patent publication US10071976B2, “Small molecule fatty acid synthase inhibitors” (Sanford Burnham Prebys Medical Discovery Institute, priority 2014, dated 2018).

Tests used:
[1] = biological target: FASN-TE (Homo sapiens, UniProt P49327); assay: In-vitro biochemical assay measuring FAS-TE inhibition (OMFH substrate, fluorescence)
Protocol: Min wells: Substrate+No enzyme+DMSO, Max wells: Substrate+Enzyme+DMSO, Sample wells: Substrate+Enzyme+Test compounds, Reference compound: Orlistat (make a fresh 10 mM stock in DMSO each time). 384-well black, low-volume plate (Greiner #784076)
Assay Protocol: • 1) ECHO transfer 160 nL of 125× Compound (or DMSO for control wells) per well. • 2) For Max and Sample wells: Add 10 μL of Enzyme (2×; 1.8 μM) prepared in RXN Buffer. For Min wells: Add 10 μL of RXN Buffer (No Enzyme). • 3) For all wells: Add 10 μL of Substrate (2×; 20 μM) prepared in diH2O+10% DMSO. • 4) Centrifuge plate for 1 minute at 1,000 rpm. • 5) Measure fluorescence every 5 minutes for 1-1.5 hours using the BMG POLARstar (ex 485 nm/em 520 nm; Gain=1015; 25 flashes). • 6) All volumes can be adjusted but the final DMSO concentration should be kept at about 6%.
Data Analysis: • 1) Calculate slopes and express as % Activity (Min wells=0%; Max wells=100%). • 2) Then, using Prism, calculate the IC50 values.

[2] = Plasma stability, human; format: in vitro ADME
Excerpt: (§1) Plasma stability is a measure of the stability of small molecules and peptides in plasma and is an important parameter, which can strongly influence the in vivo efficacy of a test compound. Drug candidates are exposed to enzymatic processes (proteinases, esterases) in plasma, and they can undergo intramolecular rearrangement or bind irreversibly (covalently) to proteins.

[3] = Plasma stability, mouse; format: in vitro ADME
Excerpt: as §1

[4] = Hepatic microsome stability, mouse; format: in vitro ADME
Excerpt: The microsomal stability assay is commonly used to rank compounds according to their metabolic stability. This assay addresses the pharmacologic question of how long the parent compound will remain circulating in plasma within the body.

[5] = in vitro; conditions: human

Chain of FASN-TE (P49327 2207-2511 limits assumed): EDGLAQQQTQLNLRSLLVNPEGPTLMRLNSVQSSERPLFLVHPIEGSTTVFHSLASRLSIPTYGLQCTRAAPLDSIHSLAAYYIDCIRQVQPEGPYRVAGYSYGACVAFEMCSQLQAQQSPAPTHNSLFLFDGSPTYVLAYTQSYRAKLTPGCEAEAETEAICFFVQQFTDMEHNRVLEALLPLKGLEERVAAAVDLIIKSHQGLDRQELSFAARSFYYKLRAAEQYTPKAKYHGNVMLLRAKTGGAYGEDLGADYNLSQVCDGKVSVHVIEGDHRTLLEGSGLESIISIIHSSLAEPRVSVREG

CCC(CC)C(=O)Nc1nc(-c2ccc(S(=O)(=O)N3CCOCC3)cc2)cs1 [Compound 16, 2-Ethyl-N-(4-(4-(morpholinosulfonyl)phenyl)thiazol-2-yl)butanamide]
IC50 [1]: 334 nM | Plasma Stability (% Remaining at 3 hrs) ([2]; Human, 3 hrs): 100/100% | plasma stability ([2]; human plasma): good stability | Plasma Stability (% Remaining at 3 hrs) ([3]; Mouse, 3 hrs): 100/100% | plasma stability ([3]; mouse plasma): good stability | Hepatic Microsome Stability (% Remaining at 1 hr) ([4]; Mouse, 1 hr): 6.37% | liver microsome stability ([4]; mouse liver microsomes): poor stability | CC50 [5]: > 50000 nM
